Source: patent US8293269B2, “Compositions for promoting sleep” (Taiyo Kagaku Co., Ltd., priority 2000, dated 2012)

Tested on: mice
Assay: acute toxic test using mice
Format: in vivo
Details: administered orally at 5 g/kg
From the text: The safety of the theanine used in the present invention is high. […] In addition, especially L-theanine is known as the main component of deliciousness (umami) of tea, and is also used as a food additive for the use of deliciousness, and there is no limitation in its amount according to the Japanese Food Sanitation Act. Moreover, contrary to the conventional medicament for ameliorating sleep disorders, since dependence on the theanine is not found at all, the sleep can be promoted safely and effectively by the use of the composition, food or medicament of the present invention, whereby moderating or ameliorating the sleep disorders.

SMILES: CCNC(=O)CC[C@H](N)C(=O)O [theanine, γ-glutamylethylamide]
- abnormality in the general state and body weight: no abnormality
- death cases: no death cases
